This passage reports IC50 results from patent US20100292279A1, “Bis-(Sulfonylamino) Derivatives in Therapy” (ASTRAZENECA AB, priority 2009, published 2010).

For the assay, the target named is T1, human mPGES-1 (Homo sapiens, UniProt O14684).
T1 construct: host or cells: microsomes
T1 sequence (O14684 1-152): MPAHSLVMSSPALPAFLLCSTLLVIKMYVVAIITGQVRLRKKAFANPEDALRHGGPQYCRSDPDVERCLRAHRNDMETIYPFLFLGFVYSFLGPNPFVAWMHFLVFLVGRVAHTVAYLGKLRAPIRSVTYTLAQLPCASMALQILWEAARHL
The assay can be described thus: Microsomal prostaglandin E synthase biochemical assay. The settings on record: microsome preparation containing human mPGES-1; substrate PGH2 10.8 μM, GSH 2.5 mM, pH 6.8; PGE2 by HTRF; average of at least n=2. The procedure: Compounds were tested as inhibitors of microsomal prostaglandin E synthase activity in microsomal prostaglandin E synthase assays and whole cell assays. These assays measure prostaglandin E2 (PGE2) synthesis which is taken as a measure of prostaglandin E synthase activity. Microsomal prostaglandin E synthase biochemical assays used microsomal prostaglandin E synthase-1 in microsomal preparations. The source of the microsomes can be for example interleukin-1β-stimulated human A549 cells (which express human mPGES-1) or Sf9 cells transfected with plasmids encoding human mPGES-1 cDNA.
A solution of test compound was added to a diluted microsome preparation containing is human mPGES-1 and pre-incubated for 15 minutes in potassium phosphate buffer pH 6.8 with cofactor glutathione (GSH). Corresponding solutions without test compound were used as positive controls, and corresponding solutions without test compound and without microsomes were used as negative controls. The enzymatic reaction was then started by addition of the substrate PGH2 in an organic solution (dry acetonitrile).
The reaction was stopped after one minute by adding an acidic solution (pH 1.9) of ferric chloride and citrate (final concentrations 7 mM and 47 mM respectively), by which the PGH2 was sequestered (the PGH2 is reduced to mainly 12-hydroxy heptadecatrineoic acid (12-HHT) which is not detected by the subsequent PGE2 detection step). The resulting solution was then pH neutralized by addition of potassium phosphate buffer, prior to diluting an aliquot of the resulting solution in a weak potassium phosphate buffer (50 mM, pH 6.8) containing 0.2% BSA (w/v). […] The PGE2 formed was quantified by use of a commercial HTRF based kit (catalogue #62PG2PEC or #62P2APEC from Cisbio International). 100% activity was defined as the PGE2 production in positive controls subtracted by the PGE2 production in the negative controls. IC50 values were then determined using standard procedures.
In general terms: Time-resolved FRET reads energy transfer from a long-lived donor to a nearby acceptor.

Each structure is given as a SMILES string.

As for `NS(=O)(=O)c1ccccc1S(=O)(=O)NC(=O)c1ccc(OCc2ccccc2)c(OCC2CC2)c1` [Example 1, 4-(Benzyloxy)-3-(cyclopropylmethoxy)-N-(2-sulfamoylphenylsulfonyl)benzamide], the IC50 came to 280 nM.
For the compound `COc1cc(C(=O)NS(=O)(=O)c2ccccc2S(N)(=O)=O)ccc1COc1ccc(C)cc1` [Example 2, 3-Methoxy-N-(2-sulfamoylphenylsulfonyl)-4-(p-tolyloxymethyl)benzamide], the IC50 is 31 nM.
In the case of `NS(=O)(=O)c1ccccc1S(=O)(=O)NC(=O)c1ccc(C#Cc2ccccc2)c(OCC(F)F)c1` [Example 3, 3-(2,2-Difluoroethoxy)-4-(phenylethynyl)-N-(2-sulfamoylphenylsulfonyl)benzamide], half-maximal inhibition (IC50) required 8.2 nM.
`Cc1ccc(C#Cc2ccc(C(=O)NS(=O)(=O)c3ccccc3S(N)(=O)=O)cc2OCC(F)F)cc1` [Example 4, 3-(2,2-Difluoroethoxy)-N-(2-sulfamoylphenylsulfonyl)-4-(p-tolylethynyl)benzamide]: the IC50 is 5 nM.
The result for `NS(=O)(=O)c1ccccc1S(=O)(=O)NC(=O)c1ccc(C#CC2CCCC2)c(OCC(F)F)c1` [Example 5, 4-(Cyclopentylethynyl)-3-(2,2-difluoroethoxy)-N-(2-sulfamoylphenylsulfonyl)benzamide] reads 14 nM.
As to `CC(C)(C)C#Cc1ccc(C(=O)NS(=O)(=O)c2ccccc2S(N)(=O)=O)cc1OCC(F)F` [Example 6, 3-(2,2-Difluoroethoxy)-4-(3,3-dimethylbut-1-ynyl)-N-(2-sulfamoylphenylsulfonyl)benzamide], the IC50 was 25 nM.
In the case of `NS(=O)(=O)c1ccccc1S(=O)(=O)NC(=O)c1ccc(-c2cc3ccccc3o2)c(OCC(F)F)c1` [Example 7, 4-(Benzofuran-2-yl)-3-(2,2-difluoroethoxy)-N-(2-sulfamoylphenylsulfonyl)benzamide] it was 4.5 nM.
The result for `Cc1ccccc1C#Cc1ccc(C(=O)NS(=O)(=O)c2ccccc2S(N)(=O)=O)cc1` [Example 8, N-(2-Sulfamoylphenylsulfonyl)-4-(o-tolylethynyl)benzamide] reads 6.4 nM.
In the case of `NS(=O)(=O)c1ccccc1S(=O)(=O)NC(=O)c1ccc(C#Cc2ccc(Cl)cc2)cc1` [Example 10, 4-((4-Chlorophenyl)ethynyl)-N-(2-sulfamoylphenylsulfonyl)benzamide] it was 3.7 nM; in that of `NS(=O)(=O)c1ccccc1S(=O)(=O)NC(=O)c1ccc(C#Cc2ccc(F)cc2)cc1` [Example 11, 4-((4-Fluorophenyl)ethynyl)-N-(2-sulfamoylphenylsulfonyl)benzamide], 10 nM.
In turn, `NS(=O)(=O)c1ccccc1S(=O)(=O)NC(=O)c1ccc(C#Cc2cccc(Cl)c2)cc1` [Example 12, 4-((3-Chlorophenyl)ethynyl)-N-(2-sulfamoylphenylsulfonyl)benzamide] registered an IC50 of 4.4 nM.
The result for `NS(=O)(=O)c1ccccc1S(=O)(=O)NC(=O)c1ccc(C#Cc2cccc(F)c2)cc1` [Example 13, 4-((3-Fluorophenyl)ethynyl)-N-(2-sulfamoylphenylsulfonyl)benzamide] reads 5.7 nM; that for `COc1cc(C(=O)NS(=O)(=O)c2ccccc2S(N)(=O)=O)ccc1C#Cc1ccccc1C` [Example 14, 3-Methoxy-N-(2-sulfamoylphenylsulfonyl)-4-(o-tolylethynyl)benzamide], 11 nM; that for `COc1cc(C(=O)NS(=O)(=O)c2ccccc2S(N)(=O)=O)ccc1C#Cc1ccc(Cl)cc1` [Example 15, 4-((4-Chlorophenyl)ethynyl)-3-methoxy-N-(2-sulfamoylphenylsulfonyl)benzamide], 8.4 nM.
Consider `COc1cc(C(=O)NS(=O)(=O)c2ccccc2S(N)(=O)=O)ccc1C#Cc1ccc(F)cc1` [Example 16, 4-((4-Fluorophenyl)ethynyl)-3-methoxy-N-(2-sulfamoylphenylsulfonyl)benzamide], for which the IC50 came to 16 nM.
In the case of `COc1cc(C(=O)NS(=O)(=O)c2ccccc2S(N)(=O)=O)ccc1C#Cc1ccc(C)cc1` [Example 17, 3-Methoxy-N-(2-sulfamoylphenylsulfonyl)-4-(p-tolylethynyl)benzamide] it was 6.3 nM.
In the case of `COc1cc(C(=O)NS(=O)(=O)c2ccccc2S(N)(=O)=O)ccc1C#Cc1cccc(C)c1` [Example 18, 3-Methoxy-N-(2-sulfamoylphenylsulfonyl)-4-(m-tolylethynyl)benzamide] it was 12 nM; in that of `COc1cc(C(=O)NS(=O)(=O)c2ccccc2S(N)(=O)=O)ccc1C#Cc1cccc(Cl)c1` [Example 19, 4-((3-Chlorophenyl)ethynyl)-3-methoxy-N-(2-sulfamoylphenylsulfonyl)benzamide], 7.3 nM; in that of `COc1cc(C(=O)NS(=O)(=O)c2ccccc2S(N)(=O)=O)ccc1C#Cc1cccc(F)c1` [Example 20, 4-((3-Fluorophenyl)ethynyl)-3-methoxy-N-(2-sulfamoylphenylsulfonyl)benzamide], 12 nM.
In the case of `NS(=O)(=O)c1ccccc1S(=O)(=O)NC(=O)c1ccc(-c2cc3ccccc3o2)c(OCC2CC2)c1` [Example 21, 4-(Benzofuran-2-yl)-3-(cyclopropylmethoxy)-N-(2-sulfamoylphenylsulfonyl)benzamide] it was 5 nM; in that of `CC(C)(C)C#Cc1ccc(C(=O)NS(=O)(=O)c2ccccc2S(N)(=O)=O)cc1OCC1CC1` [Example 22, 3-(Cyclopropylmethoxy)-4-(3,3-dimethylbut-1-ynyl)-N-(2-sulfamoylphenylsulfonyl)benzamide], 13 nM; in that of `CC(C)C#Cc1ccc(C(=O)NS(=O)(=O)c2ccccc2S(N)(=O)=O)cc1OCC1CC1` [Example 23, 3-(Cyclopropylmethoxy)-4-(3-methylbut-1-ynyl)-N-(2-sulfamoylphenylsulfonyl)benzamide], 34 nM.
For the compound `NS(=O)(=O)c1ccccc1S(=O)(=O)NC(=O)c1ccc(CN2CC(F)(F)C(F)(F)C2)cc1` [Example 24, N-(2-Sulfamoylphenylsulfonyl)-4-((3,3,4,4-tetrafluoropyrrolidin-1-yl)methyl)benzamide], the IC50 was 2900 nM.
In the case of `CC(C)C#Cc1ccc(C(=O)NS(=O)(=O)c2ccccc2S(N)(=O)=O)cc1OCCC(C)(C)O` [Example 25, 3-(3-Hydroxy-3-methylbutoxy)-4-(3-methylbut-1-ynyl)-N-(2-sulfamoylphenylsulfonyl)benzamide] it was 130 nM; in that of `CC(C)C#Cc1ccc(C(=O)NS(=O)(=O)c2ccccc2S(N)(=O)=O)cc1OC(C)C` [Example 26, 3-Isopropoxy-4-(3-methylbut-1-ynyl)-N-(2-sulfamoylphenylsulfonyl)benzamide], 85 nM.
The result for `COC(C)(C)CCOc1cc(C(=O)NS(=O)(=O)c2ccccc2S(N)(=O)=O)ccc1C#CC1CC1` [Example 27, 4-(Cyclopropylethynyl)-3-(3-methoxy-3-methylbutoxy)-N-(2-sulfamoylphenylsulfonyl)benzamide] reads 85 nM.
In the case of `CC(C)C#Cc1ccc(C(=O)NS(=O)(=O)c2ccccc2S(N)(=O)=O)cc1OCC(C)C` [Example 28, 3-Isobutoxy-4-(3-methylbut-1-ynyl)-N-(2-sulfamoylphenylsulfonyl)benzamide], the IC50 was found to be 20 nM.
In the case of `COc1cc(C(=O)NS(=O)(=O)c2ccccc2S(N)(=O)=O)ccc1OCc1ccc(C)cc1` [Example 29, 3-Methoxy-4-(4-methylbenzyloxy)-N-(2-sulfamoylphenylsulfonyl)benzamide] it was 390 nM; in that of `NS(=O)(=O)c1ccccc1S(=O)(=O)NC(=O)c1ccc(OCc2ccccc2)c(OCCC(F)(F)F)c1` [Example 30, 4-(Benzyloxy)-N-(2-sulfamoylphenylsulfonyl)-3-(3,3,3-trifluoropropoxy)benzamide], 130 nM.
`NS(=O)(=O)c1ccccc1S(=O)(=O)NC(=O)c1ccc(C#CC(O)(C2CC2)C2CC2)cc1` [Example 31, 4-(3,3-Dicyclopropyl-3-hydroxyprop-1-ynyl)-N-(2-sulfamoylphenylsulfonyl)benzamide] returned a 50% inhibitory concentration (IC50) of 220 nM.
The result for `CCCC(C)C#Cc1ccc(C(=O)NS(=O)(=O)c2ccccc2S(N)(=O)=O)cc1CO` (centres unmarked) [Example 32, 3-(Hydroxymethyl)-4-(3-methylhex-1-ynyl)-N-(2-sulfamoylphenylsulfonyl)benzamide] reads 60 nM; that for `CC(C)Oc1cc(C(=O)NS(=O)(=O)c2ccccc2S(N)(=O)=O)ccc1C#Cc1ccc(C(F)(F)F)cc1` [Example 33, 3-Isopropoxy-N-(2-sulfamoylphenylsulfonyl)-4-((4-(trifluoromethyl)phenyl)ethynyl)benzamide], 54 nM.

As a reminder, the IC50 is the midpoint of a concentration-inhibition curve.
